The source of these data is publication PMC12954580, “Multivalent glycoligands with lectin/enzyme dual specificity: self-deliverable glycosidase regulators” (Chemical Communications (Cambridge, England), 2019).

Experiment [1] addresses T1, recombinant human MMR (macrophage mannose receptor) (Homo sapiens, UniProt P22897).
T1 sequence (P22897 19-1456): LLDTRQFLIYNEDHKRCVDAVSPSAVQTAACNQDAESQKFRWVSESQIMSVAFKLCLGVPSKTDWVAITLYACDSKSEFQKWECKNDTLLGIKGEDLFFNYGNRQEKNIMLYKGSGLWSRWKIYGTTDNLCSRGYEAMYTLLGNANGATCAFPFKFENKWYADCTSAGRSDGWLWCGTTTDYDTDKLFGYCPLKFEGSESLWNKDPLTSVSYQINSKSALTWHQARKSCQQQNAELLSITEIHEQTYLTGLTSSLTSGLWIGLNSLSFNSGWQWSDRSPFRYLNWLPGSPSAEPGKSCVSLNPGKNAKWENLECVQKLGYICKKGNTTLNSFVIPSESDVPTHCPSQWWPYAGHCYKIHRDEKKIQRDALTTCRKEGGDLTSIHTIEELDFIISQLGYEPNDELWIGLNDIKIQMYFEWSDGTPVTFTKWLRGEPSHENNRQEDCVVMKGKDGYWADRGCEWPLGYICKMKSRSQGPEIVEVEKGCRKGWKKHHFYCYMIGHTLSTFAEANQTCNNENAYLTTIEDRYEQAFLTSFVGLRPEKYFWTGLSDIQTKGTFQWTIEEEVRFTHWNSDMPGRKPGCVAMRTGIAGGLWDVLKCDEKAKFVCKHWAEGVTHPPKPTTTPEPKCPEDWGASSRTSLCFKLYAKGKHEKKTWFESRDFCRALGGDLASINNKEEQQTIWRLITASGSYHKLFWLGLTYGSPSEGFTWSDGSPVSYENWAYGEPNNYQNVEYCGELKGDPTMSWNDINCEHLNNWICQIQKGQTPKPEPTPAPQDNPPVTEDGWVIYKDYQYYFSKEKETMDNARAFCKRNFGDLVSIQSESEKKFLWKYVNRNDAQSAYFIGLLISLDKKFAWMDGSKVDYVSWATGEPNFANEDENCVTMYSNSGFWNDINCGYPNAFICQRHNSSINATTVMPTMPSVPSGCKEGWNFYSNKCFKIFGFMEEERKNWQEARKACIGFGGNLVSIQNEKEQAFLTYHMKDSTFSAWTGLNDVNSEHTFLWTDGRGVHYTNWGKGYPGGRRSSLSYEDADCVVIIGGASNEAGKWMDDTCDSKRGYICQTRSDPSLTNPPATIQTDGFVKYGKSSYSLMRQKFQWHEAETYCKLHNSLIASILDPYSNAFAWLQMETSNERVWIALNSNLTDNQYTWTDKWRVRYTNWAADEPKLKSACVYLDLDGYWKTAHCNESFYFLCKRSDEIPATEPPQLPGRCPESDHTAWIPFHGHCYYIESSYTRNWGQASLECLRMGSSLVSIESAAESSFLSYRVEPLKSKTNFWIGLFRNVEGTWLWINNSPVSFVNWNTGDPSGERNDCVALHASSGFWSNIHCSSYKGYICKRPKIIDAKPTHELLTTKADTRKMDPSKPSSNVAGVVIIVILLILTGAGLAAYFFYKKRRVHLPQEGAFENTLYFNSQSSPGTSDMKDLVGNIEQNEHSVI
As to the kind of experiment: Modified ELLA: inhibition of rhMMR binding to yeast mannan. To be noted: mean of three independent experiments ± SD. As for the experimental part:
conjugates 3-8 the above protocol was repeated using in the last incubation step a solution of the desired HRP-ConA lectin concentration (50 µL per well) that contained inhibitors targeting the glycone, glycone/aglycone and surface sites (9-13; 500 µM; Figure S21B). Control […]
in the absence of the enzyme.
Determination of recombinant human MMR (rhMMR) binding affinities . The wells of mannan-coated microplates, prepared as above described, were filled with 100 μL of serial dilutions of rhMMR from a 10 µg·mL-1 stock solution in PBS (pH 7.3 containing 0.1 mM Ca2+ and 0.1 mM Mn2+), and incubated at 37 °C for 1 h. The plates were washed three times with PBST as described above and 100 µL of a solution of biotinylated anti -human MMR antibody (0.2 µg·mL_1, R&D Systems) in PBS was added in each well, and the plates were further incubated for 1 h at 37 °C.
The complex NeutrAvidin-biotinylated HRP was preformed separately by successively adding to Tris buffer (9.6 mL, 50 mM, pH 7.6) a solution of NeutrAvidin (100 µg·mL-1 in Tris buffer, 1.2 mL, Thermo Scientific) and a solution of biotin-conjugated HRP (25 µg·mL-1 in Tris buffer, 1.2 mL, Thermo Scientific). […] After 5 min at RT, the optical density was measured at 415 nm. […]
inhibition experiments. […] Optical density at 415 nm was determined after 5 min. The percent of inhibition was calculated as above indicated for a typical ELLA experiment.

Experiment [2] deals with T2, α-mannosidase (jack beans) (Canavalia ensiformis, UniProt C0HJB3).
T2 construct: purchased; host or cells: jack beans
T2 sequence (C0HJB3 1-981): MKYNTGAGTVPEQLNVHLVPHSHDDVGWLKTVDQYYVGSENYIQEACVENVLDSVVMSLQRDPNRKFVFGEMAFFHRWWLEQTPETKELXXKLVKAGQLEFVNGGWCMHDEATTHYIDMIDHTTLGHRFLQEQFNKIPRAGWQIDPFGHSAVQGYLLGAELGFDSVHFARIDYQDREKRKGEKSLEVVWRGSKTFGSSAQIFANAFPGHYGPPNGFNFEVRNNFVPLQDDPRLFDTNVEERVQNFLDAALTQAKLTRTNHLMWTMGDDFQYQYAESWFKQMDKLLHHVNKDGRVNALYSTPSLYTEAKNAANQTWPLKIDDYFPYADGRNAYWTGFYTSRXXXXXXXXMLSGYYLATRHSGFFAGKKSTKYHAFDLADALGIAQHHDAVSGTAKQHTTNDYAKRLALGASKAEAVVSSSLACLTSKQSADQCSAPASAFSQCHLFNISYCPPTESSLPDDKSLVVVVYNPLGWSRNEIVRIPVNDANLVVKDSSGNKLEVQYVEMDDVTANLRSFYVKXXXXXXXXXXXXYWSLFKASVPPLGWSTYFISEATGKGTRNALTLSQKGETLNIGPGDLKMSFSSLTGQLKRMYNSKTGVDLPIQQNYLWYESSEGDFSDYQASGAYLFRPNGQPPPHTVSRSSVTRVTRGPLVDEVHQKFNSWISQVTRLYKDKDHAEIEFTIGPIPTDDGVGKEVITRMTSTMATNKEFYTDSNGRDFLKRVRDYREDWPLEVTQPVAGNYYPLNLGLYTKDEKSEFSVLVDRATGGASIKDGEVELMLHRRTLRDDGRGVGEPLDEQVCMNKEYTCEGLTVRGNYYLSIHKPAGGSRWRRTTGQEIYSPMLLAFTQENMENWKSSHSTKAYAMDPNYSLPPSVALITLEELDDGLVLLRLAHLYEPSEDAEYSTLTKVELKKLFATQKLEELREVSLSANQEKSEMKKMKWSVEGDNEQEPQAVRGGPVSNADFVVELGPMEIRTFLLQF
The experiment in a line: Enzymatic stability / substrate behaviour towards glycosidases (gas chromatography). Format: biochemical. As to conditions: control experiment. The source says:
Preliminary evidence on the feasibility of achieving disparate glycosidase inhibition selectivity with the multivalent glycoclusters 3–8 and, at the same time, retaining intrinsic lectin binding properties was achieved by conducting control experiments using both commercial glycosidases and lectins. The glycosidase panel included α- and β-glucosidases (S. cerevisiae and bovine liver), α- and β-galactosidases (green coffee beans and E. coli) and α- and β-mannosidases (jack beans and H. pomatia). Prior to kinetic determination of the corresponding inhibition constant (Ki) values (Table S1 and Fig. S9–S18, ESI ^†), the enzymatic stability was investigated by gas chromatography. […] In all the other cases the α-mannopyranoside linkages remained stable, meaning that any effect observed in the enzyme activity should be ascribed to an inhibitor and not to a substrate behavior.

Another experiment deals with T3, concanavalin A (ConA) (Canavalia ensiformis, UniProt P02866).
T3 construct: purchased
As to the kind of experiment: Enzyme-linked lectin assay (ELLA), HRP-ConA/mannan binding inhibition. Set-up: species or system Concanavalia einsiformis. As to conditions: Figure S19A, values printed over bars, axis log [IC50, M]. The protocol:
The absorbance of the resulting mixture was determined at 405 nm.

For the molecule Man9, the IC50 in experiment [1] came out at 3.9 ± 0.5 µM. Besides, the “Substrate behaviour towards GH38 jack bean Manase” value in experiment [2] is “substrates”. For the molecule `CO[C@H]1O[C@H](CO)[C@@H](O)[C@H](O)[C@@H]1O` [MeMan, methyl α-D-mannopyranoside], the IC50 at concanavalin A (ConA) turned out to be 800 µM.
